Results on 2 compounds are retold here after patent US20230131248A1, “A SKIN TEST PLATFORM FORMED FROM A COMPOSITE MATERIAL” (Nanyang Technological University, priority 2020, published 2023).

The data set in a line: Penetration of niacinamide and glycerin into silk artificial epidermis (cross-sectional Raman spectroscopy). The format is in vitro ADME. To be noted: applied on surface for 30 min and 4 h.

Experimental: LabRAM Soleil™ Raman spectroscopy was used to measure the penetration of compounds into the silk film. The silk artificial epidermis was first immersed in water for 10 min. Then, the silk artificial epidermis was taken out and wiped with a wiper to remove surface water. Next, niacinamide or glycerin was applied on the surface of the silk artificial epidermis and left to sit for 30 min or 4 h. Finally, the resultant sample was taken for cross-sectional Raman spectroscopy to determine the penetration of the chemicals into silk artificial epidermis.

`NC(=O)c1cccnc1` [niacinamide]: the “penetration depth into silk artificial epidermis” value is given as “penetrate into half-depth”.

As to `OCC(O)CO` [glycerin], the “penetration depth into silk artificial epidermis” value is reported as “penetrate into half-depth”.
